# Data published in PubChem BioAssay AID1996.
# Settings: buffer; pH 7.4; 200.0 µM
row,solubility kinetic,SMILES
1,> 42.3 µg/mL,Cc1cccnc1N1C(=O)c2ccc(C(=O)O)cc2C1=O
2,> 50 µg/mL,N#Cc1c(SCC(=O)O)nc(N2CCOCC2)c2c1CCCC2
3,> 41.1 µg/mL,CC(=O)c1cccc(NC(=O)COc2cc(C)on2)c1
4,45.5 µg/mL,CCN(CC)C(=O)c1ccc(COc2ccccc2Cl)o1
5,44.5 µg/mL,O=C(Nc1ncccn1)c1cc(-c2ccc(F)cc2)nc2ccccc12
6,44.5 µg/mL,O=C(OCC(=O)N1CCN(c2ccccc2)CC1)c1ccc[n+]([O-])c1
7,1.8 µg/mL,Cc1ccc(N2CC(C(=O)Nc3ccc4c(c3)OCO4)CC2=O)cc1C (stereo unspecified)
8,57.2 µg/mL,Cc1ccc(C(=O)OCC(=O)NCCc2ccc(F)cc2)cc1S(=O)(=O)N1CCOCC1
9,> 46.7 µg/mL,COc1ccc(NCC(=O)N/N=C/C(C)c2ccccc2)cc1 (stereo unspecified)
10,12.1 µg/mL,CCc1nc2ccccc2c(C(=O)OCC(=O)Nc2ccc(NC(C)=O)cc2)c1C
11,6.6 µg/mL,CC(C)c1nc(Cl)c(C#N)c2c1COC(C)(C)C2
12,41.3 µg/mL,COc1ccc(OC)c(C(=O)CN2C(=O)C(=O)N(C3CCCC3)C2=O)c1
13,> 39.3 µg/mL,CC(=O)N(Cc1ccc(Cl)cc1)c1cnccn1
14,< 0.8 µg/mL,COc1ccc(/C=C/c2ccc3cccc(O)c3n2)cc1Br
15,54.8 µg/mL,Cl.Nc1nc(N2CCN(c3ccccn3)CC2)nc2ccccc12
16,40.8 µg/mL,CC1CCN(CC(=O)N2CCN(c3ccccc3)CC2)CC1
17,> 42.8 µg/mL,C=CCNC(=O)CN1N=C(c2ccc(C)cc2)CCC1=O

row,solubility kinetic,SMILES
1,> 43.4 µg/mL,COCCCN1CN=C(Nc2nc3ccccc3o2)NC1
2,> 47.8 µg/mL,COc1ccc(CNC(=O)c2cccnc2SC)cc1OC
3,< 0.3 µg/mL,Cc1ccc(NC(=O)Nc2ccc3c(c2)CCC3)cc1C
4,> 52.9 µg/mL,CCOC(=O)N1CCN(C(=O)COC(=O)c2ccc(O)cc2O)CC1
5,> 62.3 µg/mL,CC(=O)Nc1ccc(NC(=O)COC(=O)[C@@H]2CCCN2C(=O)c2cccs2)cc1
6,> 36.1 µg/mL,O=C1CNC(=S)N1Cc1cccc(Cl)c1
7,29.5 µg/mL,CC[N+](C)(CC)CCC(c1ccccc1)C1CCCCC1 (stereo unspecified)
8,50.5 µg/mL,O=C(NC1(C(F)(F)F)N=C2SCCN2C1=O)c1ccccc1F (stereo unspecified)
9,5.1 µg/mL,Clc1nc(NC2CCCC2)nc(N2CCOCC2)n1
10,8.4 µg/mL,Cc1cc(C)cc(C(=O)NC(=S)Nc2cccnc2)c1
11,9.3 µg/mL,CC1Cc2cc(/C=C3/SC(=S)NC3=O)ccc2O1 (stereo unspecified)
12,< 0.2 µg/mL,COc1ccc(C(=O)Nc2ccccc2C(=O)Nc2ccccn2)cc1
13,< 0.3 µg/mL,CCn1c(=O)c(C(=O)NCc2ccccc2)c(O)c2ccccc21
14,> 43.7 µg/mL,CCCCn1c(N2CCCC2)nc2c1c(=O)[nH]c(=O)n2C
15,< 0.6 µg/mL,O=c1c(NCCc2ccccc2)c(-c2ccccc2)c1=O
16,> 45.7 µg/mL,COC(=O)[C@H](C)NC(=O)N1CCC(Cc2ccccc2)CC1
17,38.5 µg/mL,COc1ccc2c(c1)CC/C(=C/c1ccccn1)C2=O

# Further lines, the compound ahead of its results:
row,SMILES,solubility kinetic
1,COc1ccc(CCNCC(=O)Nc2ccc(OC(F)F)cc2)cc1,34.4 µg/mL
2,CCN1CCN(CCC(=O)Nc2cc(C)ccc2C)CC1,> 43.4 µg/mL
3,c1ccc(CNc2nc(-c3ccccn3)nc3ccccc23)cc1,29.1 µg/mL
4,N#C/C(=C\c1cccnc1)C(=O)Nc1ccccc1[N+](=O)[O-],30.2 µg/mL
5,O=C1CN(S(=O)(=O)c2ccccc2)CCN1,> 36 µg/mL
6,CC1CCCCN1CC(=O)c1c[nH]c2ccccc12 (stereo unspecified),> 38.5 µg/mL
7,CCOC(=O)Cc1csc(NC(=O)Nc2ccc(F)cc2)n1,4.4 µg/mL
8,CCOc1ccc(NC(=O)c2ccc(Cl)c(NC(=O)c3ccco3)c2)cc1,< 0.4 µg/mL
9,O=C(NC1CCN(C(=O)NCc2ccccc2)CC1)c1ccc(F)cc1,9.3 µg/mL
10,Cc1cc(SCc2c(F)cccc2Cl)nc(=O)[nH]1,39.2 µg/mL
11,N#CCSc1nc(-c2ccccc2)nc2ccccc12,< 0.2 µg/mL
12,O=C(CSc1ccccc1F)NC(=O)c1ccccc1Br,> 55.2 µg/mL
13,CCC(C)CN1CCC(CO)(Cc2ccccc2Cl)CC1 (stereo unspecified),> 46.5 µg/mL
14,CC(C)C(OC(=O)c1cccs1)C(=O)NCc1ccccc1 (stereo unspecified),29.4 µg/mL
15,Cc1nc(-c2cccc(NC(=O)c3ccco3)c2)cs1,> 42.6 µg/mL
16,Cc1c(C(=O)Nc2ccc3c(c2)OCCO3)cnn1C,> 41 µg/mL
17,CC(=O)Nc1cccc(NS(=O)(=O)c2c(C)noc2C)c1,> 46.4 µg/mL
18,CCOC(=O)c1sc2ncnc(Nc3cccc(C(=O)O)c3)c2c1C,> 53.6 µg/mL
19,O=C(COC(=O)c1ccccc1F)Nc1ccc(S(=O)(=O)N2CCOCC2)cc1,38 µg/mL
20,CCCC1Cc2nc(Cl)c(C#N)cc2CO1 (stereo unspecified),> 35.5 µg/mL
21,O=C(O)CCC(=O)Nc1ccc(-c2nc3ccc(C(=O)c4ccccc4)cc3[nH]2)cc1,60.1 µg/mL
22,Cc1ccc(-c2nc(=O)[nH]c3ccccc23)cc1,25.8 µg/mL
23,CNC(=S)N1CCc2cc(OC)c(OC)cc2C1,> 40 µg/mL
24,COc1cccc2cc(C(N)=O)oc12,> 28.7 µg/mL
25,O=C(NC1CCCc2ccccc21)N[C@@H](Cc1ccccc1)C(=O)O (stereo partly specified),> 50.8 µg/mL
26,CCOC(=O)N1CCC(NC(=O)CCCC(=O)O)CC1,> 42.9 µg/mL
27,CCN(CC)C(=O)CCS(=O)(=O)c1cccc2nonc12,45.2 µg/mL
